# From patent EP1581471B9, “CYCLOPENTENONE DERIVATIVES FOR CANCER THERAPY” (Dabur Research Foundation, priority 2002, dated 2004)
# Experiments:
# DU145 = assay: three day MTT cytotoxicity assay; format: cell-based, human; conditions: DU145 (prostate), 72 hours
# Protocol: (§1) A number of the cyclopentenone derivatives were tested for cytotoxicity against 9 human tumor cell lines. Briefly, a three day MTT cytotoxicity assay was performed, which is based on the principle of uptake of MTT (3-(4,5-dimethylthiazol-2-yl)-2,5-diphenyl tetrazolium bromide), a tetrazolium salt, by the metabolically active cells where it is metabolized by active mitochondria into a blue colored formazan product that is read spectrophotometrically. MTT was dissolved in phosphate buffered saline with a pH of 7.4 to obtain an MTT concentration of 5mg/ml; the resulting mixture was filtered through a 0.22 micron filter to sterilize and remove a small amount of insoluble residue. For each type of tumor cell, 10000 to 15000 cells were seeded in a 96-well culture plate and incubated with the individual cyclopentenone derivatives in a CO2 incubator for a total of 72 hours. Control cells not treated with the cyclopentenone derivatives were similarly incubated. The assay was terminated by adding 100 ug (20 ul) of MTT to each well, then incubating for additional one hour, and finally adding 50 ul of 10% SDS-0.01N HCl to each well to lyse the cells and dissolve formazan. After incubating for one hour, the plate was read spectrophotometrically at 540 nm and the percentage of cytotoxicity calculated using the following formula: Cytotoxicity percentage = 100 × [1-(X/R1)], [formula] where X = (absorbance of treated sample at 540 nm) - (absorbance of blank at 540 nm) R1 = absorbance of control sample at 540 nm.
# (§2) The ED50 Values of the cytotoxicity defined as the concentration at which 50 % of the cells are killed in vitro was calculated for each cell line treated with each of the cyclopentenone derivatives.
# (§3) The cell lines are PTC (all colon), MOLT-4 (leukemia), SW620 […], DU145 (prostate), KB (oral squamous cell), L132 (lung), MIAPaCa2 (Pancreas), Hep2, (larynx), PA-1 (ovary), HuTu80 (duodenum), ECV 304 (endothelial), and 293 (kidney).
# ECV 304 = assay: three day MTT cytotoxicity assay; format: cell-based, human; conditions: ECV 304 (endothelial), 72 hours
# Protocol: as §1, §2, §3
# Hep2 = assay: three day MTT cytotoxicity assay; format: cell-based, human; conditions: Hep2 (larynx), 72 hours
# Protocol: as §1, §2, §3
# KB = assay: three day MTT cytotoxicity assay; format: cell-based, human; conditions: KB (oral squamous cell), 72 hours
# Protocol: as §1, §2, §3
# L132 = assay: three day MTT cytotoxicity assay; format: cell-based, human; conditions: L132 (lung), 72 hours
# Protocol: as §1, §2, §3
# MIAPaCa2 = assay: three day MTT cytotoxicity assay; format: cell-based, human; conditions: MIAPaCa2 (Pancreas), 72 hours
# Protocol: as §1, §2, §3
# MOLT-4 = assay: three day MTT cytotoxicity assay; format: cell-based, human; conditions: MOLT-4 (leukemia), 72 hours
# Protocol: as §1, §2, §3
# PA-1 = assay: three day MTT cytotoxicity assay; format: cell-based, human; conditions: PA-1 (ovary), 72 hours
# Protocol: as §1, §2, §3
# PTC = assay: three day MTT cytotoxicity assay; format: cell-based, human; conditions: PTC (colon), 72 hours
# Protocol: as §1, §2, §3
# SW620 = assay: three day MTT cytotoxicity assay; format: cell-based, human; conditions: 72 hours
# Protocol: as §1, §2, §3
# tubulin = tubulin polymerization in vitro (absorbance at 340 nm); format: biochemical; conditions: tubulin 1mg/ml, 37°C, pH 6.9; read-out: IC50 values (uM) for inhibition of Tubulin Polymerization
# Protocol: The cyclopentenone derivatives were checked for their effects on tubulin polymerization in vitro. Briefly, the tubulin assembly reaction was performed at 37°C in buffer containing 80 mM PIPES, 1mM EGTA, 1.0 mM GTP and 1mM MgCl2 (pH 6.9) at a tubulin concentration of 1mg/ml in the presence or absence of the cyclopentenone derivatives. The final concentration of the cyclopentenone derivatives in the reaction mixture varied from 1-5uM. The derivatives were dissolved in 0.1% DMSO. The control experiments were carried out with 0.1% DMSO. The tubulin polymerization was followed by measurement of the absorbance of the solution at 340 nm every 30 seconds. […] Thus the cyclopentenone derivatives mediated their observed anticancer activities by tubulin depolymerization.
# Caspase-3 = Caspase-3 induction in KB cells (colorimetric substrate DEVD-pNA); format: cell-based, Human; conditions: 5ug/ml
# Protocol: Human squamous cell carcinoma (KB) were plated in a 25 cm^2 flask. When cultures achieved confluence, the cyclopentenone derivative of structure 20 was added to the cells. The final concentration of derivative of the structure 20 in the flask was 5ug/ml. The untreated wells served as controls. The cells were incubated with the drug for 2 different time points of 6 and 16 hours at 37°C. The cells were collected by centrifugation at 2000 r.p.m. for 10 minutes. The supernatant was gently removed and discarded while Lysis Buffer was added to the cell pellet (25ul of lysis buffer per […]). The cell lysate was incubated on ice for 10 minutes and centrifuged at 10,000-x g for 1 minute. The supernatant was transferred to a new tube and kept on ice. 50ul of the cell lysate was added in a 96 well plate. To this was added 2x Reaction Buffer. Prior to using reaction buffer, 10ul of fresh DTT stock per 1 ml of 2x Reaction Buffer was added. To each well 5ul of Caspase-3 colorimetric substrate (DEVD-pNA) was added. The plate was incubated for 1-2 hours at […]. and read at 405nm.
# The level of caspase enzymatic activity in the cell lysate is directly proportional to the absorbance at 405nm. […]
# VEGF = VEGF levels in ECV304 endothelial cells (ELISA); format: cell-based, Human; conditions: 5ug/ml, 4 hours
# Protocol: Human endothelial cells (ECV304) were plated at the density of 8-10 x10^5 cells per 2 ml in a six well plate. After an overnight incubation of cells at 37°C, cyclopentenone derivatives at a concentration of 5ug/ml was added to the wells. The untreated wells served as controls. The plates were incubated for 4 hours at 37°C. The medium was collected from all the wells (control and treated) and spun down at 2000 r.p.m to remove the cellular material. The supernatant was collected and used for ELISA (Quantikine human VEGF, R&D Systems). The assay employs the quantitative sandwich enzyme immunoassay technique. A monoclonal antibody specific for VEGF has been pre-coated onto a microplate. Standards and samples were pipetted into the wells and VEGF present was bound by the immobilized antibody. After washing away the unbound substances, an enzyme-linked polyclonal antibody specific for VEGF was added to the wells. Following a wash to remove any unbound antibody-enzyme reagent, a substrate solution was added to the wells and color developed in proportion to the amount of VEGF bound in the initial step. The optical density of each well was determined within 30 minutes using a microplate reader set to 450nm and reference wavelength at 540nm. The VEGF levels were inhibited by the addition of cyclopentenone derivatives in vitro.
# 293 = assay: three day MTT cytotoxicity assay; format: cell-based, human; conditions: 293 (kidney), 72 hours
# Protocol: as §1, §2, §3
# HuTu80 = assay: three day MTT cytotoxicity assay; format: cell-based, human; conditions: HuTu80 (duodenum), 72 hours
# Protocol: as §1, §2, §3
SMILES,ED50 (ug/ml) DU145 (DU145),ED50 (ug/ml) ECV 304 (ECV 304),ED50 (ug/ml) Hep2 (Hep2),ED50 (ug/ml) KB (KB),ED50 (ug/ml) L132 (L132),ED50 (ug/ml) MiaPaca (MIAPaCa2),ED50 (ug/ml) MOLT4 (MOLT-4),ED50 (ug/ml) PA1 (PA-1),ED50 (ug/ml) PTC (PTC),ED50 (ug/ml) SW620 (SW620; SW620 (ovary)),IC50 (tubulin),Percent Induction of Caspase-3 6 hours (Caspase-3),Percent Induction of Caspase-3 16 hours (Caspase-3),Percent Reduction in VEGF (VEGF),ED50 (ug/ml) 293 293,ED50 (ug/ml) HuTu80 (HuTu80),ED50 (ug/ml) SW620 (SW620; SW620 (colon))
COc1ccc(C2=C(c3cc(OC)c(OC)c(OC)c3)C(=O)C(O)C2)cc1 (stereo not drawn) [Compound 48],>100 µg/mL,>100 µg/mL,<1.0 µg/mL,8 ± 2.1 µg/mL,9.0 ± 3.3 µg/mL,79 ± 9.5 µg/mL,<1.0 µg/mL,<1.0 µg/mL,6.0 ± 1.5 µg/mL,<1.0 µg/mL,2.1 ± 0.1 µM,18.4 ± 1.1%,22.7 ± 1.5%,23.7 ± 2.2%,–,–,–
"COc1ccc(C2=C(c3cc(OC)c(OC)c(OC)c3)C(=O)C(O[Si](C)(C)C(C)(C)C)C2)cc1 (stereo not drawn) [Compound 52, O-tert-Butyldimethylsilyloxy-3-(4-methoxyphenyl)-2-(3,4,5-trimethoxyphenyl)-cyclopent-2-en-1-one]",28 ± 4.0 µg/mL,16 ± 4.0 µg/mL,16 ± 3.0 µg/mL,7.0 ± 3.0 µg/mL,9.0 ± 2.5 µg/mL,<1.0 µg/mL,3.0 ± 1.5 µg/mL,7.0 ± 3.5 µg/mL,16 ± 3.6 µg/mL,5.0 ± 1.0 µg/mL,–,–,–,–,–,–,–
"COc1cc(C2=C(c3ccc(SC)cc3)CC(O[Si](C)(C)C(C)(C)C)C2=O)cc(OC)c1OC (stereo not drawn) [Compound 55, 5-tert-Butyldimethylsilyloxy-3-(4-thiomethylphenyl)-2-(3,4,5 trimethoxyphenyl)-cyclopent-2-en-1-one]",>100 µg/mL,>100 µg/mL,>100 µg/mL,10 ± 1.5 µg/mL,<1.0 µg/mL,<1.0 µg/mL,<1.0 µg/mL,<1.0 µg/mL,14 ± 3.5 µg/mL,<1.0 µg/mL,–,–,–,–,–,–,–
"COc1ccc(C2=C(c3cc(OC)c(OC)c(OC)c3)C(=O)C(O[Si](C)(C)C(C)(C)C)C2)cc1OC(C)C (stereo not drawn) [Compound 56, 5-tert-Butyldimethylsilyloxy-3-(4-methoxy-3-i-propoxyphenyl)-2-(3,4,5-trimethoxyphenyl)-cyclopent-2-en-1-one]",6.3 ± 2.1 µg/mL,>100 µg/mL,7.1 ± 1.5 µg/mL,7.5 ± 3.5 µg/mL,7 µg/mL,>100 µg/mL,22.5 ± 4.0 µg/mL,7.1 ± 1.5 µg/mL,>100 µg/mL,–,–,–,–,–,>100 µg/mL,6 ± 0.5 µg/mL,9 ± 1.5 µg/mL
"COc1ccc(C2=C(c3cc(OC)c(OC)c(OC)c3)C(=O)C(O)C2)cc1F (stereo not drawn) [Compound 64, 5-Hydroxy-3-(3-fluoro-4-methoxyphenyl)-2-(3,4,5-trimethoxyphenyl)-cyclopent-2-en-1-one]",27 ± 3.5 µg/mL,19.5 ± 4.5 µg/mL,<1 µg/mL,4.5 ± 1.5 µg/mL,<1 µg/mL,64 ± 3.5 µg/mL,–,–,20 ± 2.5 µg/mL,–,–,–,–,–,>100 µg/mL,<1 µg/mL,<1 µg/mL
COc1ccc(C2=C(c3cc(OC)c(OC)c(OC)c3)/C(=N\O)C(O)C2)cc1F (stereo not drawn) [Compound 66],10 ± 5.1 µg/mL,43 ± 4.5 µg/mL,<1 µg/mL,<1 µg/mL,<1 µg/mL,94 ± 10.0 µg/mL,–,–,27 ± 3.5 µg/mL,–,2 ± 0.6 µM,17.0 ± 1.0%,22.1 ± 0.6%,12.9 ± 2.9%,>100 µg/mL,9 ± 3.1 µg/mL,<1 µg/mL
"COc1ccc(C2=C(c3cc(OC)c(OC)c(OC)c3)C(=O)C(O)C2)cc1Cl (stereo not drawn) [Compound 67, 5-Hydroxy-3-(3-chloro-4-methoxyphenyl)-2-(3,4,5-trimethoxyphenyl)-cyclopent-2-en-1-one]",40 ± 8.5 µg/mL,20 ± 3.5 µg/mL,<1 µg/mL,2.5 ± 0.1 µg/mL,<1 µg/mL,>100 µg/mL,–,–,30 ± 4.0 µg/mL,<1 µg/mL,–,–,–,–,>100 µg/mL,29 ± 2.5 µg/mL,–
COc1ccc(C2=C(c3cc(OC)c(OC)c(OC)c3)C(=O)C(O)C2)cc1O (stereo not drawn) [Compound 74],–,–,–,–,–,–,–,–,–,–,1.8 ± 0.5 µM,21.8 ± 2.8%,28.4 ± 2.1%,16.9 ± 0.5%,–,–,–
